# Measured values taken from patent US6552060B1, “Asymmetric disulfides and methods of using same” (Prolx Pharmaceuticals, Inc., priority 1997, dated 2003).
# pIC50: −log10 of the molar value.
# Biological target: T1, TR/Trx (Homo sapiens, UniProt Q16881)
# T1 sequence (Q16881 1-499 isoform Q16881-5): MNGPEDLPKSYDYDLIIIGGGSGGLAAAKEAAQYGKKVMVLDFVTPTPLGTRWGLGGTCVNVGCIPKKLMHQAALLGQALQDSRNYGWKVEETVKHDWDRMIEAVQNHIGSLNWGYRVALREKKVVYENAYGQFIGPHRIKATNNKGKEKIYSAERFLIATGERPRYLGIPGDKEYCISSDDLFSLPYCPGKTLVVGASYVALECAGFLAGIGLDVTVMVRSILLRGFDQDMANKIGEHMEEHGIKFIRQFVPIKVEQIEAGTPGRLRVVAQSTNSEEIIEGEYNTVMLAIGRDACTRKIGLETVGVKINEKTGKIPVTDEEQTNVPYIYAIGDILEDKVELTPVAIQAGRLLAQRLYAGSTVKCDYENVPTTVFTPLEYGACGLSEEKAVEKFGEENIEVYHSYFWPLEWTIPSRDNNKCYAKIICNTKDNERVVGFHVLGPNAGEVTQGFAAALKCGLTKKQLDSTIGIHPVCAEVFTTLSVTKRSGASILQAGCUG
# Test: Thioredoxin dependent reduction of insulin by human thioredoxin reductase and NADPH (IC50 TR/Trx, 96 well)
# Assay type: biochemical
# Conditions: Table 3; read-out: IC50 TR/Trx (converted)
# From the text: When referring to the particular system being analyzed IC50 is typically followed by an abbreviation referring to that system (i.e., IC50 TR/Trx for the above described thioredoxin redox system which is comprised of thioredoxin reductase and thioredoxin).
# A second plate was used for the assessment of biological activity or as a biological screen. Aliquots of disulfides dissolved in DMSO, were be transferred into 96 well plates. The assay to assess their ability to inhibit thioredoxin reductase measures the thioredoxin dependent reduction of insulin by human thioredoxin reductase and NADPH. The effects of the disulfides on the reduction of Trx by TR were measured spectrophotometrically by following the reduction of NADPH at 339 nm with insulin as the final electron acceptor in a buffered mixture of TR, Trx, NADPH and insulin.
row,Compound,IC50
1,CC(C)CSSc1ncccc1C(=O)O [Compound G-23],57.5 µM

# Same assay, conditions: Table 4
row,Compound,Disulfide inhibition of TR/Trx (IC50 TR/Trx)
1,CCC(C)SSCc1ccc(OC)cc1 (stereo not drawn) [Compound F-21],60 µg/mL
2,CCCCSSC(C)c1ccccc1 (stereo not drawn) [Compound C-22],194 µg/mL
3,CC(C)CSSc1nccn1C [Compound G-2],125 µg/mL
4,CC(SSc1nc(N)nc2[nH]cnc12)c1ccccc1 (stereo not drawn) [Compound J-6],38 µg/mL
5,CCCCSSc1ncnc2[nH]cnc12 [Compound C-7],33 µg/mL
6,Cc1ccnc(SSC(C)c2ccccc2)n1 (stereo not drawn) [Compound J-24],67 µg/mL
7,Sc1nnc(SSCc2ccccc2)s1 [Compound I-4],5 µg/mL
8,CCCCSSc1nc(N)nc2[nH]cnc12 [Compound C-6],33 µg/mL
9,CC(C)CSSc1nc2ccccc2[nH]1 [Compound G-8],18 µg/mL
10,CCCSSc1nnc(C)s1 [Compound B-3],85 µg/mL
11,CC(SSCc1ccccc1)c1ccccc1 (stereo not drawn) [Compound J-19],>232 µg/mL
12,Cn1ccnc1SSCc1ccccc1 [Compound I-2],100 µg/mL
13,CCCCSSc1nc2ccccc2o1 [Compound C-12],42 µg/mL
14,CC(C)SSc1nnc(S)s1 [Compound E-4],35 µg/mL
15,CCCSSc1nccn1C [Compound B-2],75 µg/mL
16,CC(SSc1nc2cc([N+](=O)[O-])ccc2[nH]1)c1ccccc1 (stereo not drawn) [Compound J-10],43 µg/mL
17,COc1cccc(CSSC(C)c2ccccc2)c1 (stereo not drawn) [Compound J-20],74 µg/mL
18,CCCCSSCc1ccccc1 [Compound C-19],>189 µg/mL
19,CCCCSSc1nnc(C)s1 [Compound C-3],9 µg/mL
20,CCSSc1nnc(S)s1 [Compound A-4],35 µg/mL
21,CC(SSc1nnc(S)s1)c1ccccc1 (stereo not drawn) [Compound J-4],42 µg/mL
22,CCCCSSc1nc2ccccc2[nH]1 [Compound C-8],57 µg/mL
23,CCCSSc1nnc(S)s1 [Compound B-4],35 µg/mL
24,CC(SSc1nc2ccccc2[nH]1)c1ccccc1 (stereo not drawn) [Compound J-8],8 µg/mL
25,CC(SSc1nc2ccccc2o1)c1ccccc1 (stereo not drawn) [Compound J-12],16 µg/mL
26,Cc1nnc(SSC(C)c2ccccc2)s1 (stereo not drawn) [Compound J-3],11 µg/mL

row,Compound,Disulfide inhibition of TR/Trx (IC50 TR/Trx)
1,CCCCSSCc1cccc(OC)c1 [Compound C-20],61 µg/mL
2,CCCCSSCc1ccc(OC)cc1 [Compound C-21],179 µg/mL
3,CCCCSSc1nnc(S)s1 [Compound C-4],56 µg/mL
4,CCCCSSC1CCCC1 [Compound C-27],51 µg/mL
5,O=C(O)c1cccnc1SSCc1ccccc1 [Compound I-23],35 µg/mL
6,Cc1ccnc(SSCC(C)C)n1 [Compound G-24],65 µg/mL
7,CC(SSc1ncccc1C(=O)O)c1ccccc1 (stereo not drawn) [Compound J-23],89 µg/mL
8,Cc1nnc(SSCc2ccccc2)s1 [Compound I-3],9 µg/mL
9,CC(SSc1nccn1C)c1ccccc1 (stereo not drawn) [Compound J-2],12 µg/mL
10,COc1ccc(CSSC(C)c2ccccc2)cc1 (stereo not drawn) [Compound J-21],74 µg/mL
11,CC(C)CSSC(C)c1ccccc1 (stereo not drawn) [Compound G-22],201 µg/mL
12,CCCCSSc1nc2cc(C)ccc2[nH]1 [Compound C-9],12 µg/mL
13,Cc1ccc2[nH]c(SSC(C)c3ccccc3)nc2c1 (stereo not drawn) [Compound J-9],43 µg/mL
14,CCSSc1nnc(C)s1 [Compound A-3],75 µg/mL
15,CCCCSSc1nccc(C)n1 [Compound C-24],48 µg/mL
16,COc1ccc(CSSCC(C)C)cc1 [Compound G-21],>203 µg/mL
17,Cc1ccnc(SSCc2ccccc2)n1 [Compound I-24],35 µg/mL
18,CCSSc1nccc(C)n1 [Compound A-24],90 µg/mL
19,CC(C)CSSCc1ccccc1 [Compound G-19],>189 µg/mL
20,CCCCSSc1ncccc1C(=O)O [Compound C-23],65 µg/mL
21,Cc1ccc2[nH]c(SSCC(C)C)nc2c1 [Compound G-9],11 µg/mL
22,CCSSc1ncccc1C(=O)O [Compound A-23],35 µg/mL
23,CC(C)CSSc1nc2ccccc2o1 [Compound G-12],52 µg/mL
24,CCCCSSc1nc2cc([N+](=O)[O-])ccc2[nH]1 [Compound C-10],>76 µg/mL
25,Cc1nnc(SSCC(C)C)s1 [Compound G-3],29 µg/mL

# Test system: EMT6 mouse mammary tumor cells
# Test: Cytotoxicity against EMT6 cells in culture (MTT)
# Conditions: read-out: Disulfide Cytotoxicity (IC50), Table 5, 48 h exposure
row,Compound,pIC50
1,Cc1ccnc(SSC(C)C(C)O)n1 (stereo not drawn) [Compound M-24],≤ 3.74
2,CC(C)SSc1nc2ccccc2[nH]1 [Compound E-8],4.18
3,CC(C)SSc1ncnc2[nH]cnc12 [Compound E-7],< 3.74
4,CC(O)C(C)SSc1nc2ccccc2o1 (stereo not drawn) [Compound M-12],4.54
5,CC(O)C(C)SSCc1ccccc1 (stereo not drawn) [Compound M-19],4.04
6,CC(O)C(C)SSc1nccn1C (stereo not drawn) [Compound M-2],≤ 3.74
7,CC(C)SSc1ccccc1 [Compound E-13],< 3.74
8,CC(O)C(C)SSc1ncc[nH]1 (stereo not drawn) [Compound M-1],4.47
9,COc1cccc(CSSC(C)C)c1 [Compound E-20],< 3.74
10,O=C(O)CCSSc1ncccc1C(=O)O [Compound N-23],4.04
11,O=C(O)CCSSc1nc2ccccc2[nH]1 [Compound N-8],≤ 3.74
12,ClCCCSSc1ccccc1 [Compound H-13],< 3.74
13,Cn1ccnc1SSCCCCl [Compound H-2],< 3.74
14,CC(CSSC(C)C(C)O)C(=O)N1CCCC1C(=O)O (stereo not drawn) [Compound M-28],≤ 3.74
15,Cc1nnc(SSCCCCl)s1 [Compound H-3],< 3.74
16,O=C(O)c1cccnc1SSCCCCl [Compound H-23],4.16
17,CC1CCC(C(C)(C)SSCCC(=O)O)C(=O)C1 (stereo not drawn) [Compound N-26],≤ 3.74
18,Cc1ccc2[nH]c(SSC(C)C(C)O)nc2c1 (stereo not drawn) [Compound M-9],4.12
19,COc1cccc(CSSCCCCl)c1 [Compound H-20],4.04
20,ClCCCSSc1nc2ccccc2[nH]1 [Compound H-8],4.09
21,CC(C)SSc1nc2ccccc2o1 [Compound E-12],< 3.74
22,ClCCCSSc1ncc[nH]1 [Compound H-1],< 3.74
23,Cc1ccc2[nH]c(SSCCCCl)nc2c1 [Compound H-9],4.18
24,CC(O)C(C)SSc1nc2ccccc2[nH]1 (stereo not drawn) [Compound M-8],≤ 3.74
25,CC(C)SSc1nc2cc([N+](=O)[O-])ccc2[nH]1 [Compound E-10],4.54
26,CC(O)C(C)SSc1ncnc2[nH]cnc12 (stereo not drawn) [Compound M-7],≤ 3.74
27,CCC(C)SSCC(C)C(=O)N1CCCC1C(=O)O (stereo not drawn) [Compound F-28],< 3.74
28,CC(O)C(C)SSc1nc(N)nc2[nH]cnc12 (stereo not drawn) [Compound M-6],4.49
29,CCC(C)SSC1=NCCS1 (stereo not drawn) [Compound F-25],4.51
